Test results: ChEMBL document CHEMBL2021794, “Synthesis, σ₁, σ₂-receptors binding affinity and antiproliferative action of new C1-substituted adamantanes” (Bioorg Med Chem, 2012)
The source made the active and inactive calls. The calls are words filed in the database; no cut-off is given here.

Key:
[1] = tested on: IGROV-1; assay: Induction of apoptosis in human IGROV1 cells assessed as cleaved caspase-3 containing cells at 15 uM after 24 hrs by FACS analysis (reference value: 4%); format: functional
[2] = tested on: IGROV-1; assay: Induction of apoptosis in human IGROV1 cells assessed as cleaved caspase-3 containing cells at 50 uM after 24 hrs by FACS analysis (reference value: 4%); format: functional
[3] = tested on: MIA PaCa-2; assay: Antitumor activity against human MIAPaCa2 cells xenografted in SCID mouse assessed as reduction in tumor volume at 45 mg/kg, ip for 3 consecutive days; format: functional; details: MIA PaCa-2, ip, route intraperitoneal
[4] = tested on: BXPC-3; assay: Induction of apoptosis in human BxPC3 cells assessed as healthy cells at 0.5 uM after 24 hrs by Annexin V/7-AAD staining based flow cytometry (reference value: 77%); format: functional
[5] = tested on: BXPC-3; assay: Cell cycle arrest in human BxPC3 cells assessed as accumulation at >G2 phase at 5 uM after 24 hrs by propidium iodide staining based flow cytometry (reference value: 6%); format: functional
[6] = (§1) Growth inhibition of HUVEC cells after 48 hrs by SRB assay; format: cell-based; details: human, HUVEC cells
[7] = tested on: HUVEC; assay: as §1; format: cell-based; details: human, huvec, 48 h
[8] = tested on: Mus musculus; assay: Analgesic activity against formalin-induced neuropathic pain in paclitaxel treated CD1 mouse assessed as decrease of time spent in paw licking at 100 mg/kg, po administered 14 days post paclitaxel dosing and 1 hr prior formalin challenge measured for 0 to 5 mins post formalin challenge; format: functional, organism-based; parameters: dose 100 mg/kg
[9] = tested on: IGROV-1; assay: Induction of apoptosis in human IGROV1 cells assessed as healthy cells at 0.5 uM after 24 hrs by Annexin V/7-AAD staining based flow cytometry (reference value: 86%); format: functional
[10] = tested on: PC-3; assay: Induction of apoptosis in human PC3 cells assessed as early apoptotic cells at 0.5 uM after 24 hrs by Annexin V/7-AAD staining based flow cytometry (reference value: 5%); format: functional
[11] = tested on: BXPC-3; assay: Cell cycle arrest in human BxPC3 cells assessed as accumulation at >G2 phase at 0.5 uM after 24 hrs by propidium iodide staining based flow cytometry (reference value: 6%); format: functional
[12] = tested on: BXPC-3; assay: Cell cycle arrest in human BxPC3 cells assessed as accumulation at G1 phase at 50 uM after 24 hrs by propidium iodide staining based flow cytometry (reference value: 41%); format: functional
[13] = tested on: PC-3; assay: Induction of apoptosis in human PC3 cells assessed as early apoptotic cells at 5 uM after 24 hrs by Annexin V/7-AAD staining based flow cytometry (reference value: 5%); format: functional
[14] = tested on: Mus musculus; assay: Toxicity in SCID mouse assessed as mortality at 40 mg/kg, ip after 3 to 4 weeks chronic treatment; format: organism-based; parameters: dose 40 mg/kg, route intraperitoneal; details: in vivo
[15] = tested on: MIA PaCa-2; assay: Antitumor activity against human MIAPaCa2 cells xenografted in SCID mouse assessed as tumor weight at 70 mg/kg, ip for 3 consecutive days (reference value: 1225 +/- 308 mg); format: functional; details: route intraperitoneal
[16] = tested on: PC-3; assay: Cell cycle arrest in human PC3 cells assessed as accumulation at G2 phase at 50 uM after 24 hrs by propidium iodide staining based flow cytometry (reference value: 13%); format: functional
[17] = tested on: PC-3; assay: Cell cycle arrest in human PC3 cells assessed as accumulation at G1 phase at 5 uM after 24 hrs by propidium iodide staining based flow cytometry (reference value: 36%); format: functional
[18] = tested on: IGROV-1; assay: Cell cycle arrest in human IGROV1 cells assessed as accumulation at >G2 phase at 5 uM after 24 hrs by propidium iodide staining based flow cytometry (reference value: 21%); format: functional
[19] = tested on: PC-3; assay: Cell cycle arrest in human PC3 cells assessed as accumulation at S phase at 15 uM after 24 hrs by propidium iodide staining based flow cytometry (reference value: 42%); format: functional
[20] = tested on: OVCAR-5; assay: Cytotoxicity against human OVCAR5 cells after 48 hrs by trypan blue assay; format: functional, cell-based
[21] = tested on: DU-145; assay: Growth inhibition of human DU145 cells after 48 hrs by SRB assay; format: functional; details: DU-145, 48 h
[22] = tested on: BXPC-3; assay: Induction of apoptosis in human BxPC3 cells assessed as late apoptotic cells at 15 uM after 24 hrs by Annexin V/7-AAD staining based flow cytometry (reference value: 9%); format: functional
[23] = tested on: IGROV-1; assay: Cell cycle arrest in human IGROV1 cells assessed as accumulation at S phase at 15 uM after 24 hrs by propidium iodide staining based flow cytometry (reference value: 29%); format: functional
[24] = tested on: HCT-116; assay: Growth inhibition of human HCT116 cells after 48 hrs by SRB assay; format: functional; details: HCT-116, 48 h
[25] = tested on: Mus musculus; assay: Toxicity in CD1 mouse assessed as mortality at 40 mg/kg, ip after 3 to 4 weeks chronic treatment; format: organism-based; parameters: dose 40 mg/kg, route intraperitoneal; details: in vivo
[26] = tested on: NCI-H69; assay: Growth inhibition of human NCI-H69 cells after 48 hrs by SRB assay; format: functional; details: NCI-H69, 48 h
[27] = tested on: IGROV-1; assay: Cell cycle arrest in human IGROV1 cells assessed as accumulation at S phase at 0.5 uM after 24 hrs by propidium iodide staining based flow cytometry (reference value: 29%); format: functional
[28] = tested on: PC-3; assay: Induction of apoptosis in human PC3 cells assessed as late apoptotic cells at 50 uM after 24 hrs by Annexin V/7-AAD staining based flow cytometry (reference value: 2%); format: functional
[29] = tested on: HL-60(TB); assay: Growth inhibition of human HL-60(TB) cells after 48 hrs by SRB assay; format: functional; details: HL-60, 48 h
[30] = tested on: PC-3; assay: Cell cycle arrest in human PC3 cells assessed as accumulation at S phase at 5 uM after 24 hrs by propidium iodide staining based flow cytometry (reference value: 42%); format: functional
[31] = Selectivity ratio of IC50 for human sigma-1 receptor to IC50 for rat sigma-2 receptor
[32] = tested on: BXPC-3; assay: Induction of apoptosis in human BxPC3 cells assessed as healthy cells at 15 uM after 24 hrs by Annexin V/7-AAD staining based flow cytometry (reference value: 77%); format: functional
[33] = tested on: PC-3; assay: Induction of apoptosis in human PC3 cells assessed as cleaved caspase-3 containing cells at 50 uM after 24 hrs by FACS analysis (reference value: 3%); format: functional
[34] = tested on: BXPC-3; assay: Cell cycle arrest in human BxPC3 cells assessed as accumulation at S phase at 0.5 uM after 24 hrs by propidium iodide staining based flow cytometry (reference value: 33%); format: functional
[35] = tested on: PC-3; assay: Cell cycle arrest in human PC3 cells assessed as accumulation at >G2 phase at 5 uM after 24 hrs by propidium iodide staining based flow cytometry (reference value: 6%); format: functional
[36] = tested on: BXPC-3; assay: Induction of apoptosis in human BxPC3 cells assessed as late apoptotic cells at 5 uM after 24 hrs by Annexin V/7-AAD staining based flow cytometry (reference value: 9%); format: functional
[37] = tested on: BXPC-3; assay: Cell cycle arrest in human BxPC3 cells assessed as accumulation at G1 phase at 0.5 uM after 24 hrs by propidium iodide staining based flow cytometry (reference value: 41%); format: functional
[38] = tested on: IGROV-1; assay: Induction of apoptosis in human IGROV1 cells assessed as late apoptotic cells at 5 uM after 24 hrs by Annexin V/7-AAD staining based flow cytometry (reference value: 4%); format: functional
[39] = read-out: LC50 (the source's name)

Compound: CN1CCN(c2ccc(C(c3ccccc3)C34CC5CC(CC(C5)C3)C4)cc2)CC1 (stereo unspecified)
- Activity [1]: 30%
- Activity [2]: 68%
- inhibition in vivo at 45 mg/kg [3]: 47.5%
- Activity [4]: 84%
- Activity [5]: 8%
- GI50 at 48 h [6]: 4.52 µM
- LC50 [7]: 10.34 µM
- TGI [7]: 7.43 µM
- Activity [8]: Active
- Activity [9]: 89%
- Activity [10]: 3%
- Activity [11]: 8%
- Activity [12]: 33%
- Activity [13]: 5%
- Activity [14]: Non-toxic
- Activity [15]: 642 mg
- Activity [16]: 10%
- Activity [17]: 34%
- Activity [18]: 21%
- Activity [19]: 33%
- Activity [20]: Active
- GI50 [21]: 6.43 µM
- TGI [21]: 65.5 µM
- CC50 [21, 39]: 100 µM
- Activity [22]: 16%
- Activity [23]: 27%
- GI50 [24]: 4.92 µM
- TGI [24]: 9.37 µM
- CC50 [24, 39]: 100 µM
- Activity [25]: Non-toxic
- GI50 [26]: 7.09 µM
- CC50 [26, 39]: 100 µM
- Activity [27]: 28%
- Activity [28]: 9%
- GI50 [29]: 5.04 µM
- LC50 [29]: 78.5 µM
- TGI [29]: 9.63 µM
- Activity [30]: 42%
- Ratio IC50 [31]: 11.8
- Activity [32]: 60%
- Activity [33]: 18%
- Activity [34]: 34%
- Activity [35]: 5%
- Activity [36]: 17%
- Activity [37]: 37%
- Activity [38]: 3%
